# According to PMC2674222 (Biochemistry, 2009):
# Read-outs that look alike come from different tables or passages of the source.
# B1: F159W-Leuko-PNP (Homo sapiens; F159W/W16Y/W178Y/W94Y) (protein)
# chain: MENGYTYEDYKNTAEYLLSHTKHRPQVAIICGSGLGGLTDKLTQAQIFDYGEIPNFPRSTVPGHAGRLVFGFLNGRACVMMQGRFHMYEGYPLYKVTFPVRVFHLLGVDTLVVTNAAGGLNPKFEVGDIMLIRDHINLPGFSGQNPLRGPNDERFGDRWPAMSDAYDRTMRQRALSTYKQMGEQRELQEGTYVMVAGPSFETVAECRVLQKLGADAVGMSTVPEVIVARHCGLRVFGFSLITNKVIMDYESLEKANHEEVLAAGKQAAQKLEQFVSILMASIPLPDKAS
# Assays:
# Native PNP [1] = conditions: read-out: Ki* (slow-onset tight binding constant); 50 mM KH2PO4, pH 7.4, 25 °C; cited from earlier work
# Leuko-PNP [2] = conditions: read-out: Ki* (slow-onset tight binding constant); 50 mM KH2PO4, pH 7.4, 25 °C; cited from earlier work
# F159W-Leuko-PNP [3] = target: T1, F159W-Leuko-PNP (Homo sapiens, UniProt P00491, F159W/W16Y/W178Y/W94Y); conditions: relative to native and Leuko-PNP (Table 2)
# T1 sequence (P00491 1-289 W16Y/W94Y/F159W/W178Y): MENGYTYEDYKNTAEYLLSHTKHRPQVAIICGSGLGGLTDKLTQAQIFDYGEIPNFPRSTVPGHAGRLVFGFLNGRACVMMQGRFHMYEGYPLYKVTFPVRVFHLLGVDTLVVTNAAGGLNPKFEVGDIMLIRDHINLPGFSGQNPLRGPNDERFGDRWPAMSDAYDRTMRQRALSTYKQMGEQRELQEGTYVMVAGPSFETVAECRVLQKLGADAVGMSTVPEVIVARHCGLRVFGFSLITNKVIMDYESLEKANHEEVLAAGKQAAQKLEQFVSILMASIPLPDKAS
# Leuko-PNP-PO4 [4] = conditions: stopped-flow fluorometry; cited from earlier work
# Leuko-PNP-PO4 [5] = conditions: T-jump relaxation kinetics; cited from earlier work
# F159W-Leuko-PNP [6] = target: T1, F159W-Leuko-PNP; assay: Steady state kinetics, xanthine oxidase coupled assay with inosine as substrate; format: biochemical
# F159W-Leuko-PNP [7] = target: T1, F159W-Leuko-PNP; assay: Fluorometric titration of hypoxanthine-free enzyme with ligands; format: binding; conditions: for Kd: pH 7.4, 25 °C
# Leuko-PNP [8] = conditions: inosine as substrate; 50 mM KH2PO4, pH 7.4, 25 °C; cited from earlier work
# Native PNP [9] = conditions: inosine as substrate; 50 mM KH2PO4, pH 7.4, 25 °C; cited from earlier work
# F159W-Leuko-PNP-PO4 [10] = target: T2, F159W-Leuko-PNP-PO4 (Homo sapiens, UniProt P00491, F159W/W16Y/W178Y/W94Y); conditions: F159W-Leuko-PNP-Hx-PO4 system, 25 °C
# F159W-Leuko-PNP-PO4 [11] = target: T2, F159W-Leuko-PNP-PO4; assay: biochemical
# [12] = substrate: OC[C@H]1O[C@@H](n2cnc3c(O)ncnc32)[C@H](O)[C@@H]1O; assay: Steady state kinetics, xanthine oxidase coupled assay with inosine as substrate; format: biochemical, human; conditions: other: inosine as substrate, 50 mM KH2PO4, pH 7.4, 25 °C
molecule,measurement,setting,value
Immucillin-H [ImmH],Ki,Native PNP [1],0.088 ± 0.003 nM
same,Ki,Leuko-PNP [2],0.134 ± 0.012 nM
same,reduction of binding affinity to F159W-Leuko-PNP,F159W-Leuko-PNP [3],~20 fold
Nc1nc2nc[nH]c2c(=O)[nH]1 [guanine],koff,Leuko-PNP-PO4 [4],86 ± 8 s⁻¹
same,kon,Leuko-PNP-PO4 [4],2.7 ± 0.1 × 10^7 M^−1s^−1
same,koff,Leuko-PNP-PO4 [5],142 ± 36 s⁻¹
same,kon,Leuko-PNP-PO4 [5],3.6 ± 0.2 × 10^7 M^−1s^−1
"O=c1[nH]cnc2c1ncn2[C@@H]1O[C@H](CO)[C@@H](O)[C@H]1O [Inosine, inosine]","Km altered, F159W-Leuko-PNP vs native and Trp-free enzymes",F159W-Leuko-PNP [6],~7 fold
same,"kcat altered, F159W-Leuko-PNP vs native and Trp-free enzymes",F159W-Leuko-PNP [6],~2 fold
same,overall catalytic efficiency reduced relative to native- and Leuko-PNPs,F159W-Leuko-PNP [6],~14 fold
same,effect on fluorescence emission spectrum of the enzyme,"F159W-Leuko-PNP [7]; up to ∼100 μM, absence or presence of inorganic sulfate (up to 3 mM)",does not alter the fluorescence emission spectrum
same,Km,Leuko-PNP [8],50 ± 3 µM
same,kcat,Leuko-PNP [8],36 ± 1 s⁻¹
same,Km,Native PNP [9],71 ± 8 µM
same,kcat,Native PNP [9],44 ± 2 s⁻¹
4'-deaza-1'-aza-2'-deoxy-1'-(9-methylene)-Immucillin-H [DADMe-ImmH],Ki,Native PNP [1],0.0085 ± 0.0003 nM
same,Ki,Leuko-PNP [2],0.012 ± 0.003 nM
same,reduction of binding affinity to F159W-Leuko-PNP,F159W-Leuko-PNP [3],~10 fold
O=c1[nH]cnc2nc[nH]c12 [hypoxanthine],k1,F159W-Leuko-PNP-PO4 [10],(1.2 ± 0.1) × 10^7 M^−1s^−1
same,k−1,F159W-Leuko-PNP-PO4 [10],178 ± 8 s⁻¹
same,Kd,"F159W-Leuko-PNP [7]; absence of phosphate, 20 mM Tris-Cl",3.3 ± 0.2 µM
same,Kd,F159W-Leuko-PNP [7]; presence of phosphate (50 mM KH2PO4),16 ± 2 µM
same,decrease in fluorescence intensity upon titration,"F159W-Leuko-PNP [7]; absence or presence of phosphate (50 mM KH2PO4), λex 295 nm",3 fold
same,koff,F159W-Leuko-PNP-PO4 [11]; read-out: calculated dissociation rate (koff),178 ± 8 s⁻¹
same,kon,F159W-Leuko-PNP-PO4 [11]; read-out: rate of association (kon),1.2e+07 M⁻¹ s⁻¹
B1,Km,[12],422 ± 30 µM
same,kcat,[12],22 ± 1 s⁻¹
same,kcat/Km,[12],52000 ± 4000 M⁻¹ s⁻¹
